From patent US20140336184A1, “METHOD TO ENHANCE COGNITION” (priority 2011, published 2014)

Columns and labels:
[1] = test system: CA1 neurons in Pkr−/− hippocampal slices; assay: Whole-cell patch clamp recording of synaptic currents; type: cell-based, mouse; settings: PKRi
[2] = molecular target: T1, PKR (Rattus norvegicus, UniProt Q63184); settings: dose of 0.1 mg/kg i.p. (Ingrand et al., 2007); cited from earlier work
T1 sequence (Q63184 1-513): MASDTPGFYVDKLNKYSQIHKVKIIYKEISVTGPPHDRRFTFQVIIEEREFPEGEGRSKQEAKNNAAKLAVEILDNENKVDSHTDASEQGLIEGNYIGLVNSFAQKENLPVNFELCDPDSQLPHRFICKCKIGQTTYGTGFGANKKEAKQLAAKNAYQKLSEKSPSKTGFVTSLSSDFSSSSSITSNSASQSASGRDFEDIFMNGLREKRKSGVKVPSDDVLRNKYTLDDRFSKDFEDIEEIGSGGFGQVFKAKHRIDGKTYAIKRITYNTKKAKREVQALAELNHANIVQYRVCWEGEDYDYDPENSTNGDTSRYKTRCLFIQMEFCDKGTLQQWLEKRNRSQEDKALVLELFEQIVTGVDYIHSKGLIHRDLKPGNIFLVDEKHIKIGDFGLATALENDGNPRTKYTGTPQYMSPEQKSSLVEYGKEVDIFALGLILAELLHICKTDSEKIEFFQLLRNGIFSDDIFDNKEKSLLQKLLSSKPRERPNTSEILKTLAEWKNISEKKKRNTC

[3] = test system: CA1 neurons in WT hippocampal slices; type: cell-based, mouse
[4] = test system: hippocampal slices from Pkr−/− mice; assay: Field recording (population spikes) in CA1 of hippocampal slices; type: cell-based, mouse; settings: PKRi
Description: Field recording: horizontal hippocampal slices ([…]) were cut from brains of WT or age-matched Pkr^−/− littermates in 4° C. artificial cerebrospinal fluid (ACSF) and kept in ACSF at room temperature for at least one hr before recording, as described (Zhu et al., 2005). Slices were maintained in an interface-type chamber perfused with oxygenated ACSF (95% O2 and 5% CO2) containing in mM: 124 NaCl, 2.0 KCl, 1.3 MgSO4, 2.5 CaCl2, 1.2 KH2PO4, 25 NaHCO3, and 10 glucose (2-3 ml/min). Bipolar stimulating electrodes were placed in the CA1 stratum radiatum to stimulate Schaffer collateral and commissural fibers. Field potentials were recorded using ACSF-filled micropipettes at 28-29° C. The recording electrodes were placed in the stratum radiatum for field excitatory postsynaptic potentials (fEPSPs), and stratum pyramidale for population spikes. The stimulus strength of the 0.1 ms pulses was adjusted to evoke 30-35% of maximum response for fEPSPs, and 50% of maximal response for population spikes. A stable baseline of responses was established for at least 30 min at 0.033 Hz. Tetanic LTP was induced by high-frequency stimulation in brief trains (100 Hz, 1 s), applied either as a single train or four trains separated by 5 min intervals. A short train consisted of 5 stimuli (100 Hz within-burst). […]

[5] = test system: WT mice; assay: Contextual and auditory fear conditioning; type: in vivo, mouse; settings: PKRi 0.1 mg/kg i.p. immediately after training, n=8
Description: The experimenter was blind to the genotype for all behavioral tests. Fear conditioning was performed as previously described (Costa-Mattioli et al., 2007). Mice were first handled for 3-5 min for 3 days and then habituated to the conditioning chamber for 20 min for another 3 days. On the training day, after 2 min in the conditioning chamber, mice received a pairing of a tone (2800 Hz, 85 db, 30 s) with a co-terminating foot-shock (0.35 mA, 1 s), after which they remained in the chamber for two additional min and then were returned to their home cages. Mice were tested 24 hr after training for “freezing” (immobility with the exception of respiration) in response to the tone (in a chamber to which they had not been conditioned) and to the training context (training chamber).
During testing for auditory fear conditioning, mice were placed in the chamber and freezing responses were recorded during the initial 2 min (pre-CS period) and during the last 3 min when the tone was played. Mice were returned to their cages 30 s after the end of the tone. […] For extinction trials, freezing in response to the conditioned context was assessed for 5 min, 24 hr, 48 hr, 72 hr and 96 hr after training and normalized to the amount of freezing obtained at 24 hr. For all tests, freezing behavior was determined at 5 s intervals during a 5 min period. […]

[6] = test system: WT hippocampal slices; assay: Tetanic LTP (E-LTP/L-LTP) in hippocampal slices; type: cell-based, mouse
Description: (§1) Field recording: horizontal hippocampal slices ([…]) were cut from brains of WT or age-matched Pkr^−/− littermates in 4° C. artificial cerebrospinal fluid (ACSF) and kept in ACSF at room temperature for at least one hr before recording, as described (Zhu et al., 2005). Slices were maintained in an interface-type chamber perfused with oxygenated ACSF (95% O2 and 5% CO2) containing in mM: 124 NaCl, 2.0 KCl, 1.3 MgSO4, 2.5 CaCl2, 1.2 KH2PO4, 25 NaHCO3, and 10 glucose (2-3 ml/min). Bipolar stimulating electrodes were placed in the CA1 stratum radiatum to stimulate Schaffer collateral and commissural fibers. Field potentials were recorded using ACSF-filled micropipettes at 28-29° C. The recording electrodes were placed in the stratum radiatum for field excitatory postsynaptic potentials (fEPSPs), and stratum pyramidale for population spikes. The stimulus strength of the 0.1 ms pulses was adjusted to evoke 30-35% of maximum response for fEPSPs, and 50% of maximal response for population spikes. A stable baseline of responses was established for at least 30 min at 0.033 Hz. Tetanic LTP was induced by high-frequency stimulation in brief trains (100 Hz, 1 s), applied either as a single train or four trains separated by 5 min intervals. A short train consisted of 5 stimuli (100 Hz within-burst). When indicated, ACSF was supplemented with anisomycin (Calbiochem, Calif.), PKRi (Calbiochem, Calif.), bicuculline (Tocris) or diazepam (Sigma-Aldrich). It should be noted that the inventors used bicuculline free base which only blocks GABAA receptor rather than bicuculline-M (bicuculline methiodide, methobromide or methochloride) which in addition to GABAA receptor also blocks small conductance (SK) calcium-activated potassium channels (Debarbieux et al., 1998). […] To reduce day-to-day variations, whenever possible simultaneous recordings (in the same chamber) were obtained from slices from Pkr^−/− mice and WT littermates treated with drugs or vehicle. Statistical analysis was performed using t-test and two-way ANOVA. […]

[7] = test system: Pkr−/− hippocampal slices; type: cell-based, mouse
Description: as §1

[8] = test system: hippocampal slices from WT mice; assay: Field recording (population spikes, fEPSPs) in CA1 of hippocampal slices; type: cell-based, mouse
Description: Field recording: horizontal hippocampal slices ([…]) were cut from brains of WT or age-matched Pkr^−/− littermates in 4° C. artificial cerebrospinal fluid (ACSF) and kept in ACSF at room temperature for at least one hr before recording, as described (Zhu et al., 2005). Slices were maintained in an interface-type chamber perfused with oxygenated ACSF (95% O2 and 5% CO2) containing in mM: 124 NaCl, 2.0 KCl, 1.3 MgSO4, 2.5 CaCl2, 1.2 KH2PO4, 25 NaHCO3, and 10 glucose (2-3 ml/min). Bipolar stimulating electrodes were placed in the CA1 stratum radiatum to stimulate Schaffer collateral and commissural fibers. Field potentials were recorded using ACSF-filled micropipettes at 28-29° C. The recording electrodes were placed in the stratum radiatum for field excitatory postsynaptic potentials (fEPSPs), and stratum pyramidale for population spikes. The stimulus strength of the 0.1 ms pulses was adjusted to evoke 30-35% of maximum response for fEPSPs, and 50% of maximal response for population spikes. A stable baseline of responses was established for at least 30 min at 0.033 Hz. Tetanic LTP was induced by high-frequency stimulation in brief trains (100 Hz, 1 s), applied either as a single train or four trains separated by 5 min intervals. A short train consisted of 5 stimuli (100 Hz within-burst). When indicated, ACSF was supplemented with anisomycin (Calbiochem, Calif.), PKRi (Calbiochem, Calif.), bicuculline (Tocris) or diazepam (Sigma-Aldrich). It should be noted that the inventors used bicuculline free base which only blocks GABAA receptor rather than bicuculline-M (bicuculline methiodide, methobromide or methochloride) which in addition to GABAA receptor also blocks small conductance (SK) calcium-activated potassium channels (Debarbieux et al., 1998). […] To reduce day-to-day variations, whenever possible simultaneous recordings (in the same chamber) were obtained from slices from Pkr^−/− mice and WT littermates treated with drugs or vehicle. Statistical analysis was performed using t-test and two-way ANOVA. All data are presented as means±SEM and “n” indicates the number of slices.

[9] = molecular target: T2, PKR (Homo sapiens, UniProt P19525); settings: Jammi et al., 2003; Shimazawa and Hara, 2006; cited from earlier work
[10] = test system: adult WT mice; assay: Video EEG recordings in freely moving mice; type: in vivo, mouse
Text: Pkr knockout (Pkr^−/−) mice (Abraham et al., 1999) were back-crossed for at least eight generations to 129SvEv mice. Mice were weaned at the third postnatal week and genotyped by PCR. Briefly, the mutant and corresponding WT alleles are detected by a four-primer PCR assay in which Oligo-1 (5′-GGAACITrGGAGCAATGGA-3′) and Oligo-2 (5′-[…]-3′) give a WT band of 225 base-pair fragment and Oligo-3 (5′-TGTTCTGTGGCTATCAGGG-3′) and Oligo-4 (5′-[…]-3′) give a 432 base-pair fragment from the deleted allele. eIF2α^+/S51A mice were previously described (Costa-Mattioli et al., 2007; Scheuner et al., 2001). All experiments were performed on 8-16 weeks old males. The mice were kept on a 12 h light/dark cycle, and the behavioral experiments were always conducted during the light phase of the cycle. The mice had access to food and water ad libitum, except during tests. […]
PKRi (Calbiochem, San Diego), a potent ATP-binding-site-directed inhibitor of PKR which blocks PKR autophosphorylation (Jammi et al., 2003; Shimazawa and Hara, 2006), was prepared as a 20 mM stock solution in DMSO (dimethyl sufloxide). PKRi was freshly dissolved in saline and then injected intraperitoneally (i.p.) at a dose of 0.1 mg/kg and the EEG was recorded 1 hr after injection. A digital video camera simultaneously monitored behavior during the EEG recordings. […]

[11] = molecular target: T2, PKR; settings: final concentration of 1 μM (Page et al., 2006; Wang et al., 2007); cited from earlier work
[12] = PKRi 1 μM, −60 mV, kynurenic acid
[13] = PKRi 1 μM, −60 mV, kynurenic acid 2 mM, TTX 1 μM

T2 sequence (P19525 whole entry): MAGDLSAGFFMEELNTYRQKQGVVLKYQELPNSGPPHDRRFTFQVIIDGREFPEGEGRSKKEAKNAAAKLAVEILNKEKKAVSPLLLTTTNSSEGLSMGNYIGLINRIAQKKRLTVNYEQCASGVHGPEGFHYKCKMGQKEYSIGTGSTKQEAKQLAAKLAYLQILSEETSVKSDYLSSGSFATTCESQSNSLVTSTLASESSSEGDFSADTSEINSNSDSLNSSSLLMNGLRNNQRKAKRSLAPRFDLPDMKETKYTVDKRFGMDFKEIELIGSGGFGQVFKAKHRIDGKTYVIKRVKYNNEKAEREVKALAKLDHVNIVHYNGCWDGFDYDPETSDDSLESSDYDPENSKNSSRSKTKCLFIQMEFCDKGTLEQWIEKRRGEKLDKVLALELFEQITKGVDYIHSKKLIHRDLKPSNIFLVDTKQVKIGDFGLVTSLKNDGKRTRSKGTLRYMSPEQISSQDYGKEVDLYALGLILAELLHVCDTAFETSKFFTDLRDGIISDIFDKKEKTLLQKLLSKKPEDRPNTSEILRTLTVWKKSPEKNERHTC

In the case of `O=C1Nc2ccc3ncsc3c2/C1=C/c1cnc[nH]1` [PKRi], the “Amplitude of evoked IPSCs” value [1] is listed as “did not alter”, the “PKR activity in the hippocampus in vivo” value [2] is listed as “known to block PKR activity in the hippocampus in vivo” and the “Evoked EPSCs” value ([3]; PKRi 1 μM bath application, picrotoxin 100 μM, −70 mV) is listed as “no effect”. For the same compound, the “Amplitude of sIPSCs” value [3, 12] was “not amplitude”, the “Frequency of sIPSCs” value [3, 12] was “decreases” and the “Amplitude of mIPSCs” value [3, 13] was “but not their amplitude”. For the same compound, the “Frequency of mIPSCs” value [3, 13] was “decreased”, the “Amplitude of pharmacologically isolated monosynaptic eIPSCs” value ([3]; PKRi bath-application, 50 μM APV, 10 μM CNQX, 10 μM CGP55845, 0 mV, half-maximal stimulation) was “reduced” and the “Electrically isolated eIPSCs” value ([3]; PKRi, holding potential 0 mV, half-maximal stimulation) was “Reduced”. The “Amplitude or frequency of sEPSCs, mEPSCs or eEPSCs” value ([3]; WT slices treated with PKRi) was “not significantly changed”, the “mIPSCs Rise Time 10%-90%” value ([3]; WT slices treated with PKRi) was 1.36 ± 0.07 ms and the “mIPSCs τW” value ([3]; WT slices treated with PKRi) was 21.28 ± 1.24 ms. For the same compound, the “sIPSCs Rise Time 10%-90%” value ([3]; WT slices treated with PKRi) was 1.68 ± 0.18 ms, the “sIPSCs τW” value ([3]; WT slices treated with PKRi) was 22.89 ± 0.78 ms and the “Paired-pulse depression of IPSCs (IPSC2/IPSC1)” value ([3]; at 50 ms inter-stimulus interval) was “reduced”. For the same compound, the Population spikes [4] was “no effect”, the “Auditory fear memory (freezing 24 hr after training)” value [5] was “enhanced” and the “Contextual fear memory (freezing 24 hr after training)” value [5] was “enhanced”. The “LTP after a single high frequency train (100 Hz for 1 s)” value ([6]; PKRi 1 μM, WT slices, at 220 min p<0.001) was “converts E-LTP into L-LTP”, the “LTP elicited by a single 100 Hz train (1 s)” value ([7]; PKRi, Pkr−/− slices) was “did not further potentiate LTP” and the “Decrease of CA1 population spike amplitude during short high frequency train (cumulative inhibition)” value ([8]; 5 pulses at 100 Hz) was “minimal or no high-frequency stimulation-induced decrease in spike amplitude”. The Duration of burst ([8]; PKRi 1 μM, bicuculline 2 μM) was “increased”, the “Number of evoked spikes” value ([8]; PKRi 1 μM, bicuculline 2 μM) was “increased” and the “After-discharges after a single stimulus” value ([8]; PKRi 1 μM, in presence of bicuculline 2 μM, half-maximal stimulation at 0.03 Hz) was “pronounced after-discharges”. The “Initial slope of EPSPs” value ([8]; PKRi 1 μM, single stimulus) was “did not alter”, the Presynaptic afferent volley ([8]; PKRi 1 μM, single stimulus) was “did not alter” and the “Amplitude of population spikes” value ([8]; PKRi 1 μM, single stimulus, WT slices) was “enhanced”. The “Population spikes (firing) in slices pre-treated with bicuculline” value ([8]; WT slices pre-treated with the GABAA antagonist bicuculline) was “no further enhancement of firing”, the PKR autophosphorylation [9] was “blocks” and the “Abnormal EEG activity present (mice affected)” value ([10]; PKRi 0.1 mg/kg i.p., recorded one hour after injection, absent in all WT controls (n=6), p<0.01) was 6 out of 7. For the same compound, the “Cortical EEG activity” value ([10]; PKRi 0.1 mg/kg, adult WT mice) was “induces acute spiking (d) and rhythmic bursts (e)” and the PKR activity ex-vivo [11] was “known to block PKR activity ex-vivo”.

In the case of `COc1ccc(C[C@H]2NC[C@H](O)[C@H]2OC(C)=O)cc1` [anisomycin], the “Facilitated L-LTP after a single train” value ([7]; anisomycin, Pkr−/− slices, at 220 min p<0.01) is reported as “suppressed”.

With `CN1C(=O)CN=C(c2ccccc2)c2cc(Cl)ccc21` [diazepam] the “L-LTP induction by four trains at 100 Hz” value [6] was “blocked L-LTP induction”, the “L-LTP induced by four tetanic trains” value ([6]; low concentration of diazepam (11 μM), WT slices) was “no effect” and the “L-LTP after a single train” value [7] was “prevented the induction of L-LTP”.
